Key:
IL-21 = experiment: Multiplex (MSD V-PLEX) cytokine release, InflammaSkin: IL-21; assay type: cell-based, human; conditions: Example 2; 1 μM Otezla systemic; compared to untreated InflammaSkin
Protocol: (§1) A total of 16 biopsies of 15 mm diameter were produced from a single donor. Two NativeSkin® models with 12/15 mm silicon rings were produced from the biopsies according to standard procedures in place, and cultured under cell culture conditions (37° C., 5% CO2, max. humidity) for 7 days with 2 mL of standard NativeSkin® medium renewed every day. Fourteen PSO-InflammaSkin® models with 12/15 mm silicon rings were produced by inducing in situ activation and Th17/Th1 polarization of skin resident T cells with a proprietary cocktail, and cultured under cell culture conditions (37° C., 5% CO2, max. humidity) for 7 days with 2 mL of PSO-InflammaSkin® culture medium renewed every day. […]
(§2) Human pro-inflammatory cytokines released in the supernatant were quantified using the V-PLEX Human IL-17A Kit (MesoScale Discovery, reference: K151RFD-1) and V-PLEX Human custom Pro-inflammatory. […]
(§3) Samples were diluted four times for plate 2 and two times for plate 1. Samples and standards were assessed in duplicate. Plates were read on MesoScale Discovery Quickpleax SQ 120 plate reader and values expressed in pg/mL.
(§4) A statistical analysis was performed. […] First, the distribution's normality of the two compared group was assessed. […] If the two distributions were normal, the homogeneity of variances was assessed using a Fisher test on the variances. […]

[1] = Observations of animal well-being in IMQ-induced psoriasis model mice; assay type: in vivo, mouse
IL-31 = experiment: Multiplex (MSD V-PLEX) cytokine release, InflammaSkin: IL-31; assay type: cell-based, human; conditions: Example 2; Day 7 supernatant; 1 μM Otezla or SCFA systemic; vs untreated InflammaSkin
Protocol: as §1, §2, §3, §4

[2] = test system: imiquimod (IMQ)-induced psoriasis model mice; experiment: Disease severity score, imiquimod (IMQ)-induced psoriasis model in mice; assay type: in vivo, mouse; conditions: for disease severity score (psoriasis severity score): Example 12
Protocol: (§5) Topical application of IMQ, a TLR7/8 ligand and potent immune activator induced and exacerbated psoriasis in mice. The mouse IMQ-induced psoriasis (IMQ Ps) model was initiated by a repeated topical application of Aldara© cream (containing 5% IMQ) over 6 consecutive days. Female Balb/c mice (9 weeks of age at reception, ordered with 20 g, Charles River, Sulzfeld, Germany; n=10 mice/group, exception healthy controls n=4) received daily a topical application of 62.5 mg of commercially available IMQ cream (5% Aldara©) on the beforehand (day −1) shaved (~2 cm×3 cm), depilated (Pilka© cream) back skin, and 7 mg on the outer right ear skin for 6 consecutive days, translating in a daily dose of approximately 3.5 mg IMQ. Healthy control mice were included in the study and were treated with vehicle cream (Vaseline; Bombastus-Werke AG) only instead of IMQ. Additionally, an IMQ disease control group was also included.
(§6) Before starting treatment on the day of disease induction (day 0), mice were randomized based on body weight to the respective group. To evaluate the anti-inflammatory efficacy of the two test compounds in mouse IMQ psoriasis, mice were treated twice daily ([…] in sterile water; m/m/v) or with fixed dose of SCFA (in ddH2O) starting on day 0.
(§7) Disease Severity Score was evaluated on a daily base starting with the induction of psoriasis by IMQ application (day 0) until the end (day 6) of the study. The psoriasis severity on the back skin of the mice was evaluated by using a modified scoring system developed by van der Fits et al., based on the clinical PASI (psoriasis area and severity index) and takes skin erythema, scaling and skin thickening into account. Scoring was performed by the same lab technician throughout the experiment. Each parameter was scored independently on a scale from 0 to 3.
The added-up score (erythema plus scaling plus thickening), named disease severity score (scale 0-9), served then as marker for the severity of back skin inflammation. In addition, ear thickness of the right ear was determined daily by using an automatized caliper (Bayer AG, Germany).
The statistical analysis of the data was conducted by using the GraphPad PRISM software. Here, a one-way analysis of variance (ANOVA) and a pair-wise comparison to the IMQ disease control group (using the Dunnett's test) as a multiple comparison procedure was performed. Statistical significance was delineated by p value (*, p<0.05; **, p<0.01; ***, p<0.005; **** p<0.001).

[3] = test system: imiquimod (IMQ)-induced psoriasis model mice; experiment: Back skin scaling, IMQ-induced psoriasis model in mice; assay type: in vivo, mouse; conditions: for skin scaling: Example 12
Protocol: as §5, §7
as §6, with “two” for “two test”, “m/m/v) alone,” for “m/m/v) or”, “ddH2O) alone, […] dose of SCFA. Healthy and IMQ disease controls were orally treated in parallel with vehicle only. All treatments started with first application of IMQ” for “ddH2O) starting”
Skin scaling, one of the disease severity score parameters, was evaluated in IMQ-treated mice (FIGS. 57-59).

## CCOc1cc([C@@H](CS(C)(=O)=O)N2C(=O)c3cccc(NC(C)=O)c3C2=O)ccc1OC [Otezla, Apremilast]
IL-21
  increase of secretion of IL-21: about 50%
[1]; Example 4, SCFA fixed dose BID (120 + 2,146 mg/kg/day), Apremilast 50 mg/kg/day, oral, study duration
  observations of animal well-being: reduced activity, ruffled coat and were slightly hunched
[1]; Example 7, SCFA (120 + 1,100 mg/kg/day), Apremilast 2.5, 5, 7 mg/kg BID, or combinations, study duration
  observations of animal well-being: well tolerated
[1]; Example 8 (written in present tense), SCFA, Apremilast 2.5, 5, 7 mg/kg BID, or combinations
  observations of animal well-being: well tolerated
[1]; Example 9, SCFA fixed dose, Apremilast 25 mg/kg BID, or combination, study duration
  observations of animal well-being: well tolerated
[1]; Example 10 (written in present tense), SCFA, Apremilast 25 mg/kg BID, or combination
  observations of animal well-being: well tolerated
[1]; Example 12, SCFA fixed dose, Apremilast 12 or 25 mg/kg BID, or combinations, study duration
  observations of animal well-being: well tolerated
IL-31
  IL-31 secretion: reduced IL-31 (FIG. 10 and FIG. 17), but it was not significantly different from untreated InflammaSkin® models
[2]; Example 4, oral gavage BID from day 0 to day 6, Apremilast 25 mg/kg BID (50 mg/kg/day), SCFA fixed dose (120 mg/kg/day Ca-propionate + 2,146 mg/kg/day Ca-/Mg-butyrate), vs IMQ control
  disease severity score (psoriasis severity), back skin: significantly inhibited the psoriasis severity in IMQ-treated mice throughout the duration of the experiment
[2]; Example 5, Apremilast 10 mg/kg/day and 14 mg/kg/day (5 and 7 mg/kg BID), oral
  disease severity score (psoriasis severity): inhibited the psoriasis severity in IMQ-treated mice within the first four days of the study, but anti-inflammatory effects were not maintained until the end of the study at day 6
[2]; Apremilast 12 mg/kg BID oral, monotherapy
  disease severity score (psoriasis severity score): did not reach significance at day 4 and day 5
[2]; Apremilast 25 mg/kg BID oral alone, or combined with fixed dose SCFA (60 mg/kg/day Ca-propionate + 1,100 mg/kg/day Ca-/Mg-butyrate)
  disease severity score (psoriasis severity score): reduced the psoriasis severity score in IMQ-treated mice at day 4 of the study (p<0.05), and these effects were maintained at the end of the study at day 6
[3]; Example 9, Apremilast 25 mg/kg BID, SCFA fixed dose (120 mg/kg/day Ca-propionate + 1,100 mg/kg/day Ca-/Mg-butyrate), alone or combined, oral
  back skin scaling (desquamation) over time: able to inhibit the skin scaling from day 3 to day 5
[3]; Example 9, Apremilast 25 mg/kg BID, SCFA fixed dose (120 + 1,100 mg/kg/day), alone or combined, p<0.01
  cumulative evaluation of skin scaling over the entire course of the study: significant and similar beneficial effects
[3]; day 5 and day 6, Apremilast 25 mg/kg BID alone, or combined with fixed dose SCFA (60 + 1,100 mg/kg/day)
  skin scaling: significantly inhibited skin scaling on day 5 (p<0.05) and day 6 (p<0.01)
[3]; day 6, fixed dose SCFA alone, Apremilast 12 mg/kg BID alone, or both combined
  skin scaling: did not reach significance at day 6

Reference: US20260216109A1, “TREATMENT OF SKIN DISORDERS WITH SHORT CHAIN FATTY ACIDS” (Temple University-Of The Commonwealth System of Higher …, priority 2023, published 2026)
